In patent US7612104B2, “Bicyclic aryl-sulfonic acid [1,3,4]-thiadiazol-2-yl-amides, processes for their preparation, pharmaceutical compositions and methods for their use” (Sanofi-Aventis, priority 2005, dated 2009):

These compounds were tested against T1, human PPARgamma (Homo sapiens, UniProt P37231) (assay: Cellular PPARgamma assay (transiently transfected HEK cells, luciferase reporter)). Conditions: HEK cells transiently transfected with GAL4-humanPPARgammaLBD.
T1 construct: amino acids I152-Y475; expressed in transfected cells; host or cells: HEK cells, transiently transfected (pcDNA3-GAL4-humanPPARgammaLBD)
T1 sequence (P37231 182-477 isoform P37231-2 limits assumed): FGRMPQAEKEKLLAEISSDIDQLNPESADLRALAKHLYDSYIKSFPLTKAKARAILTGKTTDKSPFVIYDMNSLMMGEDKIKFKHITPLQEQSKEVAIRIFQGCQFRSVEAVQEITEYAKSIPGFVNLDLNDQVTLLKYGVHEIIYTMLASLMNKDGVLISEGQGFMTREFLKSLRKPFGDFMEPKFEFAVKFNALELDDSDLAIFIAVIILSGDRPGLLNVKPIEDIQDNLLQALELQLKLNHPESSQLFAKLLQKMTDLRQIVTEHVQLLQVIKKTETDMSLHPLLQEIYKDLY
Type: cell-based
From the text: A transient transfection system is employed to determine the cellular PPARgamma activity of PPAR agonists. It is based on the use of a luciferase reporter plasmid (pGL3basic-5xGAL4-TK) and of a PPARgamma expression plasmid (pcDNA3-GAL4-humanPPARgammaLBD). Both plasmids are transiently transfected into human embryonic kidney cells (HEK cells). There is then expression in these cells of the fusion protein GAL4-humanPPARgammaLBD which binds to the GAL4 binding sites of the reporter plasmid. In the presence of a PPARgamma-active ligand, the activated fusion protein GAL4-humanPPARgammaLBD induces expression of the luciferase reporter gene, which can be detected in the form of a chemiluminescence signal after addition of a luciferase substrate. As a difference from the stably transfected PPARalpha reporter cell line, in the cellular PPARgamma assay the two components (luciferase reporter plasmid and PPARgamma expression plasmid) are transiently transfected into HEK cells because stable and permanent expression of the PPARgamma fusion protein is cytotoxic.
The luciferase reporter plasmid pGL3basic-5xGAL4-TK is based on the vector pGL3basic from Promega. The reporter plasmid is prepared by cloning five binding sites of the yeast transcription factor GAL4 (each binding site with the sequence 5′-CTCGGAGGACAGTACTCCG-3′), together with a 160 bp-long thymidine kinase promoter section (Genbank Accession #AF027128) 5′-upstream into pGL3basic. 3′-downstream of the thymidine kinase promoter is the complete luciferase gene from Photinus pyralis (Genbank Accession #M15077) which is already a constituent of the plasmid pGL3basic used. The cloning and sequencing of the reporter plasmid pGL3basic-5xGAL4-TK took place in analogy to the description in Sambrook J. et. al. (Molecular cloning, Cold Spring Harbor Laboratory Press, 1989).
The PPARgamma expression plasmid pcDNA3-GAL4-humanPPARgammaLBD was prepared by first cloning the cDNA coding for amino acids 1-147 of the yeast transcription factor GAL4 (Genbank Accession #P04386) into the plasmid pcDNA3 (from Invitrogen) 3′-downstream of the cytomegalovirus promoter. Subsequently, the cDNA of the ligand-binding domain (LBD) of the human PPARgamma receptor (amino acids I152-Y475; Accession #g1480099) 3′-downstream of the GAL4 DNA binding domain. Cloning and sequencing of the PPARgamma expression plasmid pcDNA3-GAL4-humanPPARgammaLBD again took place in analogy to the description in Sambrook J. et. al. (Molecular cloning, Cold Spring Harbor Laboratory Press, 1989). Besides the luciferase reporter plasmid pGL3basic-5xGAL4-TK and the PPARgamma expression plasmid pcDNA3-GAL4-humanPPARgammaLBD, also used for the cellular PPARgamma assay are the reference plasmid pRL-CMV (from Promega) and the plasmid pBluescript SK(+) from Stratagene. All four plasmids were prepared using a plasmid preparation kit from Qiagen, which ensured a plasmid quality with a minimal endotoxin content, before transfection into HEK cells.
The activity of PPARgamma agonists is determined in a 4-day assay which is described below. Before the transfection, HEK cells are cultivated in DMEM (#41965-039, Invitrogen) which is mixed with the following additions: 10% FCS (#16000-044, Invitrogen), 1% penicillin-streptomycin solution (#15140-122, Invitrogen) and 2 mM L-glutamine (#25030-024, Invitrogen).
Firstly, solution A, a transfection mixture which contains all four plasmids previously described in addition to DMEM, is prepared. The following amounts are used to make up 3 ml of solution A for each 96 well microtiter plate for an assay: 2622 μl of antibiotic- and serum-free DMEM (#41965-039, Invitrogen), 100 μl of reference plasmid pRL-CMV (1 ng/μl), 100 μl of luciferase reporter plasmid pGL3basic-5xGAL4-TK (10 ng/μl), 100 μl of PPARgamma expression plasmid pcDNA3-GAL4-humanPPARgammaLBD (100 ng/μl) and 78 μl of plasmid pBluescript SK(+) (500 ng/μl). […]

Row | EC50 [nM] | Structure (SMILES)
1 | 1 | CCOc1cc(C(F)(F)F)ccc1C(=O)NC1Cc2ccc(S(=O)(=O)Nc3nnc(C(C)C)s3)cc2C1 (racemic) [Example 1, 2-Ethoxy-N-[5-(5-isopropyl-[1,3,4]thiadiazol-2-ylsulfamoyl)-indan-2-yl]-4-trifluoromethyl-benzamide]
2 | 22 | CCOc1cc(C(F)(F)F)ccc1C(=O)NC1Cc2ccc(S(=O)(=O)Nc3nnc(C(C)C)s3)cc2C1 (single isomer, unassigned; enantiomer 1) [Example 1.1, 2-Ethoxy-N-[5-(5-isopropyl-[1,3,4]thiadiazol-2-ylsulfamoyl)-indan-2-yl]-4-trifluoromethyl-benzamide (Enantiomer 1)]
3 | > 10000 | CCOc1cc(C(F)(F)F)ccc1C(=O)NC1Cc2ccc(S(=O)(=O)Nc3nnc(C(C)C)s3)cc2C1 (single isomer, unassigned; enantiomer 2) [Example 1.2, 2-Ethoxy-N-[5-(5-isopropyl-[1,3,4]thiadiazol-2-ylsulfamoyl)-indan-2-yl]-4-trifluoromethyl-benzamide (Enantiomer 2)]
4 | 100 | CCOc1cc(C(F)(F)F)ccc1C(=O)N[C@H]1CCc2ccc(S(=O)(=O)Nc3nnc(C(C)C)s3)cc2C1 [Example 5, 2-Ethoxy-N-[(S)-7-(5-isopropyl-[1,3,4]thiadiazol-2-ylsulfamoyl)-1,2,3,4-tetrahydro-naphthalen-2-yl]-4-trifluoromethyl-benzamide]
5 | 200 | CCOc1cc(C(F)(F)F)ccc1C(=O)N[C@@H]1CCc2ccc(S(=O)(=O)Nc3nnc(C(C)C)s3)cc2C1 [Example 6, 2-Ethoxi-N-[(R)-7-(5-isopropyl-[1,3,4]thiadiazol-2-ylsulfamoyl)-1,2,3,4-tetrahydro-naphthalene-2-yl]-4-trifluoromethyl-benzamide]
6 | > 10000 | CCOc1cc(C(F)(F)F)sc1C(=O)NC1Cc2ccc(S(=O)(=O)Nc3nnc(C(C)C)s3)cc2C1 (stereo not drawn) [Example 11, 3-Ethoxy-5-trifluoromethyl-thiophene-2-carboxylic acid [5-(5-isopropyl-[1,3,4]thiadiazol-2-ylsulfamoyl)-indan-2-yl]-amide]
